In patent publication US10905757B2, “Cross-reactive T cell epitopes of HIV, SIV, and FIV for vaccines in humans and cats” (priority 2012, dated 2021):
“Also recorded” adds a separate entry of the source. Ends that are not written are not given here.

Key:
Type in all cases: cell-based, human
[1] = test system: CD4+ or CD8+ T cells from HIV+ subjects; assay: Intracellular cytotoxin staining (ICS), CD4+ or CD8+ T cells from HIV+ responders; details: for cytotoxin and CD107a expression in CD4+ and CD8+ T cells (in words): p24 peptides; for cytotoxin / CTL-associated activity (in words): RT pools and peptides
Protocol: Briefly, 1×10^6PBMCs (freshly isolated) are stimulated with 20 μg of peptides for 6 hours in a total volume of 200 μL in a 96-well plate in presence of Golgi transport inhibitor (37° C., 5% CO2). […] Cells were stained with the LIVE/DEAD® fixable yellow dye (Invitrogen, Eugene, Oreg.). […] The flow cytometry data is collected using BD LSRII and analyzed with the FACS DIVA software.
The cells were subsequently fixed and permeabilized with Cytofix/Cytoperm solution (BD Biosciences) before reaction with anti-cytotoxin antibodies. The antibodies consisted of anti-CD3 APC-H7, anti-CD4 BD Horizon V450, and anti-CD8 FITC followed by anti-GrzB Alexa 700 and anti-GrzA PE (all from BD Biosciences), and anti-perforin PerCP (Abcam, Boston, Mass.).
(§1) In both analyses, 1.0-2.0×10^4 cells were fixed in phosphate-buffered saline (PBS) containing 2% paraformaldehyde and analyzed on BD LSRII using […] Software (BD Biosciences), with a positive threshold of 3% CFSE^low for CFSE-proliferation and 1% T cells expressing cytotoxin for ICS. The final value for each subject was derived after subtraction of the subject's medium control and the average value of peptide-stimulated cells from uninfected control subjects.
Flow cytometry (FACS) for measuring CFSE-proliferation and intracellular cytokine staining (ICS).
Both analyses were performed with BD LSRII and […]™ Software (BD Biosciences), using a positive threshold of >1% CFSE^low for CFSE-proliferation except for ICS studies with threshold of >0.1% T cells expressing cytotoxin.

[2] = test system: CD3+CD8+ T cells from HIV+ subjects; assay: CFSE-proliferation, CD3+CD8+ T cells from HIV+ subjects; details: for CD8^+ T-cell Responder Frequency: responders/tested; for responder frequency of CD8+ T-cell proliferation to individual F3 peptides: eight F3 responders
Protocol: (§2) 2×10^5-5×10^5 CFSE labeled PBMCs were incubated with 15-20 μg of peptides in 600 μL of RPMI media with 10% FBS for 5 days at 37° C. (5% CO2). After harvesting, they were labeled with allophycocyanin (APC), APC-H7, and Pacific Blue labeled monoclonal antibodies (MAb) to human CD3, CD4, and CD8, respectively and analyzed for T-cell proliferation by flow cytometry using BD LSRII (BD Biosciences). The proliferating CD4^+ or CD8^+ T cell populations were defined from the CD3^+ cell population as either CD3^+CD8^+ or CD3^+CD4^+T cells (mutually exclusive) with low CFSE (CFSE^low) staining.
(§3) Flow cytometry (FACS) for carboxyfluoresein diacetate succinimide ester (CFSE)-proliferation and intracellular cytotoxin staining (ICS). The CFSE-proliferation analysis was performed on PBMC according to the manufacturer's protocol (Invitrogen, Carlsbad, Calif.) and processed as previously described (Lichterfeld et al. (2004)). Modifications consisted of using 2.0-5.0×10^5 CFSE-labeled cells stimulated for 5 days (37° C., 5% CO^2) with 30 μg/well of total peptides in a pool (15 μg/well for individual peptide, Table 10) or 5 μg/mL PHA in AIM V medium containing 25 μg/mL of gentamycin and 10% heat-inactivated human serum. Subsequently these cells were harvested and labeled with the LIVE/DEAD fixable yellow dye (Invitrogen) and then treated 5 min with anti-CD16/CD32 antibody (Biolegend, San Diego, Calif.) for blocking non-specific binding before phenotype-specific antibodies. The following antibodies were used for the CFSE-proliferation analysis: anti-CD4 APC, anti-CD3 APC-H7, and anti-CD8 Pacific Blue (BD Biosciences, San Jose, Calif.).
as §1
(§4) Flow cytometry (FACS) for measuring CFSE-proliferation and intracellular cytokine staining (ICS). Carboxyfluorescein diacetate succinimide ester (CFSE)-proliferation analysis was performed according to the manufacturer's protocol (Invitrogen) and processed as previously described (Lichterfeld et al. 2004) using the following modification: 2.5-5.0×10^5 CFSE-labeled PBMC stimulated for 4-5 days (37° C., 5% CO2) with 15-30 μg of peptides in culture media (AIM V medium, 25 μg/mL gentamycin, and 10% heat-inactivated fetal bovine serum). The ICS analysis was performed as previously described (Horton et al. 2007; Pattacini et al. 2012).
(§5) The antibodies used for the proliferation analysis consisted of anti-CD4 allophycocyanin (APC) anti-CD3 APC-H7, and anti-CD8 Pacific Blue, and those for ICS were anti-CD3 APC-H7, anti-CD4 BD Horizon V450, anti-CD8 FITC, anti-granzyme B (GrzB) Alexa 700, anti-granzyme A (GrzA) PE (BD Biosciences, Cat #555349, 560176, 558207, 560345, 555366, 560213, 558904), and anti-perforin PerCP (Abcam, Cat #ab86319). Both analyses were performed with BD LSRII and […]™ Software (BD Biosciences), using a positive threshold of >1% CFSE^low for CFSE-proliferation except for ICS studies with threshold of >0.1% T cells expressing cytotoxin. The final value for each subject was derived after subtracting the result of each HIV^+ subject with the media control followed by subtraction with the average response of the media-control subtracted HIV^− subjects.

[3] = test system: CD3+CD4+ T cells from HIV+ subjects; assay: CFSE-proliferation, CD3+CD4+ T cells from HIV+ subjects; details: for CD4^+ T-cell Responder Frequency: responders/tested
Protocol: as §2, §3, §1, §4, §5

[4] = test system: CD8+ T cells from HIV+ subjects; assay: Intracellular cytotoxin staining (ICS: perforin, GrzA, GrzB, CD107a), CD8+ T cells from HIV+ subjects
Protocol: Briefly, 1×10^6PBMCs (freshly isolated) are stimulated with 20 μg of peptides for 6 hours in a total volume of 200 μL in a 96-well plate in presence of Golgi transport inhibitor (37° C., 5% CO2). The cells are processed as previously described (Horton et al. (2007)). Cells were stained with the LIVE/DEAD® fixable yellow dye (Invitrogen, Eugene, Oreg.). The monoclonal antibodies fluorochome-conjugated to human cytokines used are: APC-H7 to CD3 (clone SK7); BD Horizon V450 to CD4 (clone RPA-T4); Qdot to CD8 (clone 3B5); PE-cy7 to IFN-γ (clone 4S.B3); APC to IL-2 (clone MQ1-17H12) PerCP to perforin (clone B-D48); Alexa F1.700 to granzyme-B (clone GB11) and PE to granzyme-A (clone CB9). The flow cytometry data is collected using BD LSRII and analyzed with the FACS DIVA software.
The ICS analysis (Horton et al. (2007)) involved stimulating 0.5-1.0×10^6 freshly isolated PBMC for 6 h with the same peptide stimulant and culture conditions as the proliferation analysis in the presence of 1 μg/mL of Golgi transport inhibitor and monensin followed by labeling with LIVE/DEAD fixable yellow dye and then treatment with anti-CD16/CD32 antibody and T-cell phenotypic antibodies. The cells were subsequently fixed and permeabilized with Cytofix/Cytoperm solution (BD Biosciences) before reaction with anti-cytotoxin antibodies. The antibodies consisted of anti-CD3 APC-H7, anti-CD4 BD Horizon V450, and anti-CD8 FITC followed by anti-GrzB Alexa 700 and anti-GrzA PE (all from BD Biosciences), and anti-perforin PerCP (Abcam, Boston, Mass.).
as §1, §4, §5

[5] = large 13-15mer peptides, yr 2, responders to Fp9 or Fp14 pool via CFSE proliferation
[6] = small 9-13mer peptides, yr 4, responders to Fp9 or Fp14 pool via both proliferation and IFNγ

Compound: CSCC[C@H](NC(=O)[C@H](Cc1c[nH]c2ccccc12)NC(=O)[C@H](CC(N)=O)NC(=O)[C@H](CCCCN)NC(=O)[C@@H](NC(=O)[C@H](C)NC(=O)[C@H](C)NC(=O)[C@H](CC(=O)O)NC(=O)[C@@H](N)[C@@H](C)O)C(C)C)C(=O)N[C@H](C(=O)O)[C@@H](C)O [Sp14-1c]
- cytotoxin and CD107a expression in CD4+ and CD8+ T cells (in words) [1]: slightly lower number of responses

Compound: AEARFAPARMQCRAW [Fp9-2]
- CD8^+ T-cell Responder Frequency (%) [2, 5]: (43) %
- CD8^+ T-cell Responder Frequency [2, 5]: 3/7
- Fp9 responders whose CD8+ T cells proliferate to individual 13-15mer peptide ([2]; seven Fp9 responders): 3 of 7
- CD4^+ T-cell Responder Frequency (%) [3, 5]: (14) %
- CD4^+ T-cell Responder Frequency [3, 5]: 1/7

Compound: AEQASQEVKN [Hp15-1c]
- cytotoxin and CD107a expression in CD4+ and CD8+ T cells (in words) [1]: high cytotoxin and CD107a expression

Compound: AEVKLYLKQSLSI [Fp14-3d]
- Cytotoxins ([1]; responders to Fp9 or Fp14 peptide pools): Low Cytotoxins (only CD8)

Compound: EQQAEARFAPARM [Fp9-1]
- CD8^+ T-cell Responder Frequency (%) [2, 5]: (14) %
- CD8^+ T-cell Responder Frequency [2, 5]: 1/7
- CD4^+ T-cell Responder Frequency (%) [3, 5]: (0) %
- CD4^+ T-cell Responder Frequency [3, 5]: 0/7

Compound: Fp9-1/2a (EARFAPARM)
- CD8^+ T-cell Responder Frequency [2, 6]: 5/9
- CD8^+ T-cell Responder Frequency (%) [2, 6]: (56) %
- CD4^+ T-cell Responder Frequency [3, 6]: 0/9
- CD4^+ T-cell Responder Frequency (%) [3, 6]: (0) %

Compound: Fp9-2/3b (APARMQCRA)
- CD8^+ T-cell Responder Frequency [2, 6]: 3/9
- CD8^+ T-cell Responder Frequency (%) [2, 6]: (33) %
- CD4^+ T-cell Responder Frequency [3, 6]: 0/9
- CD4^+ T-cell Responder Frequency (%) [3, 6]: (0) %

Compound: Fp9-3e (ARMQCRAWYL)
- CD8^+ T-cell Responder Frequency [2, 6]: 3/9
- CD8^+ T-cell Responder Frequency (%) [2, 6]: (33) %
- CD4^+ T-cell Responder Frequency [3, 6]: 1/9
- CD4^+ T-cell Responder Frequency (%) [3, 6]: (11) %

Compound: Fp9-3f (APARMQCRAWYL)
- CD8^+ T-cell Responder Frequency [2, 6]: 4/9
- CD8^+ T-cell Responder Frequency (%) [2, 6]: (44) %
- CD4^+ T-cell Responder Frequency [3, 6]: 1/9
- CD4^+ T-cell Responder Frequency (%) [3, 6]: (11) %

Compound: Fp14-1/2a (NTAEVKLYL)
- CD8^+ T-cell Responder Frequency [2, 6]: 4/10
- CD8^+ T-cell Responder Frequency (%) [2, 6]: (40) %
- CD4^+ T-cell Responder Frequency [3, 6]: 1/10
- CD4^+ T-cell Responder Frequency (%) [3, 6]: (10) %

Compound: Fp14-2/3b (AEVKLYLKQ)
- CD8^+ T-cell Responder Frequency [2, 6]: 3/10
- CD8^+ T-cell Responder Frequency (%) [2, 6]: (30) %
- CD4^+ T-cell Responder Frequency [3, 6]: 1/10
- CD4^+ T-cell Responder Frequency (%) [3, 6]: (10) %

Compound: Fp14-2/3c (AEVKLYLKQSL)
- CD8^+ T-cell Responder Frequency [2, 6]: 9/10
- CD8^+ T-cell Responder Frequency (%) [2, 6]: (90) %
- CD4^+ T-cell Responder Frequency [3, 6]: 5/10
- CD4^+ T-cell Responder Frequency (%) [3, 6]: (50) %

Compound: Fp14-3/4g (YLKQSLSIA)
- CD8^+ T-cell Responder Frequency [2, 6]: 6/10
- CD8^+ T-cell Responder Frequency (%) [2, 6]: (60) %
- CD4^+ T-cell Responder Frequency [3, 6]: 0/10
- CD4^+ T-cell Responder Frequency (%) [3, 6]: (0) %

Compound: IDFRVLNKLTDKGA [F3-5]
- responder frequency of CD8+ T-cell proliferation to individual F3 peptides [2]: 3 of 8

Compound: KKKSGKWRMLIDFRV [F3-3]
- cytotoxin / CTL-associated activity (in words) [1]: induce cytotoxin expression

Compound: LYLKQSLSI [Fp14-3/4e]
- cytotoxin and CD107a expression in CD4+ and CD8+ T cells (in words) [1]: high frequency of cytotoxin expression

Compound: NPWNTPVFAIKKK [F3-1]
- cytotoxin / CTL-associated activity (in words) [1]: induced CTL-associated activities

Compound: QASQEVKNWM [Hp15-1a]
- cytotoxin and CD107a expression in CD4+ and CD8+ T cells (in words) [1]: high cytotoxin and CD107a expression

Compound: QEQNTAEVKL [Fp14-1a]
- cytotoxin and CD107a expression in CD4+ and CD8+ T cells (in words) [1]: high cytotoxin and CD107a expression

Compound: QNTAEVKLYL [Fp14-1b]
- cytotoxin and CD107a expression in CD4+ and CD8+ T cells (in words) [1]: high frequency of cytotoxin expression; also recorded: high cytotoxin and CD107a expression

Compound: TPVFAIKKKSGKWRM [F3-2]
- responder frequency of CD8+ T-cell proliferation to individual F3 peptides [2]: 3 of 8

Compound: VKNWMTQTL [Sp14-1a]
- cytotoxin and CD107a expression in CD4+ and CD8+ T cells (in words) [1]: slightly lower number of responses

Compound: WRMLIDFRVLNKL [F3-4]
- cytotoxin / CTL-associated activity (in words) [1]: induced CTL-associated activities
- cytotoxin expression / CTL-associated activity in CD8+ T cells (in words) [4]: highest frequency and levels
